We go through 16 compounds from patent US8772499B2, “TRPV3 modulators” (AbbVie Inc., priority 2011, dated 2014).

Where two headings read alike, the source gives them in different places. Some results are limits rather than exact numbers.

One data set addresses T1, human TRPV3 (Homo sapiens, UniProt Q8NET8).
T1 construct: expressed in transfected cells
T1 sequence (Q8NET8 1-790): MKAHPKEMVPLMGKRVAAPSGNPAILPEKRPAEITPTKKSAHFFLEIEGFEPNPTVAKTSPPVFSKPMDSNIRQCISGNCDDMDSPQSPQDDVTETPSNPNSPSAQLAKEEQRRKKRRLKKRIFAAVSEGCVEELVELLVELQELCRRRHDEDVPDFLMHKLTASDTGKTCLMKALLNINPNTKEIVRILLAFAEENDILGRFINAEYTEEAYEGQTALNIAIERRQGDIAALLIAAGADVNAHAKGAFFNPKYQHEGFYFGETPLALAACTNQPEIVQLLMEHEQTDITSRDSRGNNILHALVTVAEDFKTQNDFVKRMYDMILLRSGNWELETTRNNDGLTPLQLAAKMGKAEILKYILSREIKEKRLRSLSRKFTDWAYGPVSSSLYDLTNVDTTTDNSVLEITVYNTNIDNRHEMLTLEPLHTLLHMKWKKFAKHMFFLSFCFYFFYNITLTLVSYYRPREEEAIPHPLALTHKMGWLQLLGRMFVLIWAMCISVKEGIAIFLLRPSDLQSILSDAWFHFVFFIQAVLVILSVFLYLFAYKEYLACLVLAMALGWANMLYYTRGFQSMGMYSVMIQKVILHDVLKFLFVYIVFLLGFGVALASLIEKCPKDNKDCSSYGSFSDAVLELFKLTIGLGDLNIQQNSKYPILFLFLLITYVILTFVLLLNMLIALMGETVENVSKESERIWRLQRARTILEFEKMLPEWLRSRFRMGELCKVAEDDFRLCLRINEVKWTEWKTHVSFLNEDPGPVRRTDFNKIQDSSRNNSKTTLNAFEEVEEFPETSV
Description: In vitro antagonism of recombinant human TRPV3 activation (FLIPR Tetra calcium assay). Format: cell-based. As to conditions: HEK293 cells stably expressing human TRPV3, agonist 2-APB at 80 μM. The method, boiled down:
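Calcium flux read over a 10 min run: compound added at 10 s to Calcium-4-loaded human TRPV3-HEK293 cells, agonist 2-APB (80 μM, its EC80) after 3 min. IC50 derived from peak-minus-baseline signal as percentage of uninhibited 2-APB response, typically averaged over at least two runs.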

The nature of data set [1]: In vitro human microsomal stability assay. The format is in vitro ADME. As to conditions: for HUMAN MICROSOMAL STABILITY (% REMAINING AFTER 30 MINUTES): microsomes, 0.5 h, 0.5 μM, pH 7.4. The method, boiled down: (§1)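 Metabolic stability was followed in NADPH-supplemented incubations at 37° C., using microsomes prepared from human liver or from Sprague-Dawley rat liver.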

Data set [2] can be described thus: In vitro rat microsomal stability assay. The format is in vitro ADME, rat (Sprague-Dawley). The conditions noted are these: for RAT MICROSOMAL STABILITY (% REMAINING AFTER 30 MINUTES): Sprague-Dawley, microsomes, 0.5 h, 0.5 μM, pH 7.4. The method, boiled down: as §1
Data set [3] relates to chronic constriction injury (CCI) model of neuropathic pain. In words: In vivo chronic constriction injury (CCI) model of neuropathic pain, mechanical allodynia (von Frey). The conditions noted are these: 100 mg/kg oral dose, mechanical allodynia 1 hour after dosing, CCI mice, average of eight mice, vehicle 0%, control 100%; for inhibition in vivo at 100 mg/kg: Mus musculus, po, 1 h, read-out: % EFFECT. Also noted: species or system CD1 mice. The protocol: Test compounds were evaluated for analgesic effect in an in vivo chronic constriction injury (CCI) model of neuropathic pain. CD1 mice (Charles River) were used for these studies. Prior to testing (2-4 weeks) animals underwent a surgical procedure consisting of approximately 3 loose ligatures around the sciatic nerve. Following sterilization procedures, under isofluorane anesthetic, a 1.5 cm incision was made dorsal to the pelvis. The biceps femoris and gluteous superficialis (right side) were separated and the sciatic nerve exposed, isolated, and 2-4 loose ligatures (5-0 chromic gut) with less than 1 mm spacing were placed around it. Following hemostasis, the wound was sutured (layer of muscle closed with 5-0 nylon suture, and the wound closed with surgical staples) and coated with iodine. The mice were allowed to recover on a warming plate and were returned to their home cages (soft bedding) when able to walk on their own.
Two to four weeks after the surgery, test compound was administered orally (PO) in these mice, and mechanical allodynia was evaluated 1 hour after oral dosing where the threshold to response was assessed using calibrated von Frey monofilaments. The von Frey monofilaments were applied to the hind paw at increasing forces until the animal responded by lifting its paw. Normally, the force of the von Frey monofilament was innocuous and only in the altered state (allodynia or hyperalgesia) did the animals respond to this stimulation. […] At the end of the experiment, after behavioral testing, plasma (and in some instances brain tissue) was taken for exposure analysis.
Each test compound was evaluated in eight different mice. The data reported in Table 3 represent the average value of the approximate percent effect of each compound in relieving neuropathic pain in mice receiving 100 mg/kg oral dose of the test compound. The grams of force needed to elicit a withdrawal response from the injured mouse that was challenged with vehicle was assigned a 0% effect, while the grams of force needed to elicit a withdrawal response from the control was given a 100% effect.

Another data set deals with TRPV3. As to conditions: TRPV3 agonist, relatively weak and nonspecific across TRPs; cited from earlier work.
Where [4] appears, read: actual measured value shown parenthetically, in most cases average of at least two runs, read-out: IC50.

In the case of `C[C@]1(O)C[C@](c2cc(C(F)(F)F)ccn2)([C@H](O)c2ccccn2)C1` (relative stereo) [Example 285, cis-3-[(S)-hydroxy(pyridin-2-yl)methyl]-1-methyl-3-[4-(trifluoromethyl)-pyridin-2-yl]cyclobutanol], the IC50 at human TRPV3 (setting [4]) is 1000 nM; on human TRPV3 (reported range, read-out: IC50 (range class)), 501 to 1000 nM. Moreover, in data set [1] (human liver microsomes, 0.5 μM substrate, 0.25 mg/mL microsomal protein, pH 7.4, 37° C., NADPH, 30 minutes), the “HUMAN […] (% REMAINING AFTER 30 MINUTES)” value came out at 83%. The “RAT […] (% REMAINING AFTER 30 MINUTES)” value in data set [2] (rat liver microsomes (Sprague-Dawley), 0.5 μM substrate, 0.25 mg/mL microsomal protein, pH 7.4, 37° C., NADPH, 30 minutes) was 69%. The “% EFFECT” value in data set [3] amounted to 59%.
Turning to `OC1CC(c2ccc(Cl)c(Cl)c2)(C(O)c2ccccn2)C1` (single isomer, unassigned) [Example 118], on human TRPV3 (setting [4]), the concentration for half-maximal inhibition (IC50) worked out at 220 nM. Moreover, the “HUMAN MICROSOMAL STABILITY (% REMAINING AFTER 30 MINUTES)” value in data set [1] is above 85%. Also, the “RAT MICROSOMAL STABILITY (% REMAINING AFTER 30 MINUTES)” value in data set [2] came to 74%. For the same compound, the “% EFFECT” value in data set [3] is given as 89%.
In the same order, the values of `OC1CC(c2ccc(Cl)c(Cl)c2)(C(O)c2ccccn2)C1` (single isomer, unassigned) [Example 119] are 570 nM, above 85%, 69% and 16%.
Take `CC1(O)CC(c2ccc(OC(F)(F)F)cc2)(C(O)c2ccccn2)C1` (single isomer, unassigned) [Example 134]: the concentration for half-maximal inhibition (IC50) on human TRPV3 (setting [4]) stood at 860 nM. Besides, the “HUMAN MICROSOMAL STABILITY (% REMAINING AFTER 30 MINUTES)” value in data set [1] is recorded as 78%. For the same compound, in data set [2], the “RAT MICROSOMAL STABILITY (% REMAINING AFTER 30 MINUTES)” value amounted to 72%. Moreover, the inhibition in vivo at 100 mg/kg in data set [3] worked out at 98%.
As to `CC1(O)CC(c2ccc(C(F)(F)F)cc2)(C(O)c2ccccn2)C1` (single isomer, unassigned) [Example 232], the half-maximal inhibitory concentration (IC50) on human TRPV3 (setting [4]) was found to be 1950 nM. Besides, in data set [1], the “HUMAN MICROSOMAL STABILITY (% REMAINING AFTER 30 MINUTES)” value is on record as 80%. Further, the “RAT MICROSOMAL STABILITY (% REMAINING AFTER 30 MINUTES)” value in data set [2] was 67%. Further, the inhibition in vivo at 100 mg/kg in data set [3] came to 65%.
`CC1(O)CC(c2cccc(C(F)(F)F)c2)(C(O)c2ccccn2)C1` (single isomer, unassigned) [Example 236]: on human TRPV3 (setting [4]), the IC50 was found to be 760 nM. Also, the “HUMAN MICROSOMAL STABILITY (% REMAINING AFTER 30 MINUTES)” value in data set [1] is 54%. For the same compound, the “RAT MICROSOMAL STABILITY (% REMAINING AFTER 30 MINUTES)” value in data set [2] came out at 41%. The inhibition in vivo at 100 mg/kg in data set [3] came to 33%.
Regarding `c1ccc(B(OB(c2ccccc2)c2ccccc2)c2ccccc2)cc1` [DPBA, diphenylboronic anhydride], the EC50 in the data set with TRPV3 was around 40000 nM.
Turning to `NCCOB(c1ccccc1)c1ccccc1` [Example 2-APB, 2-aminoethoxydiphenylborate], the EC50 with TRPV3 was around 40000 nM.
As to `O[C@H](c1ccccn1)C1(c2ccc(OC(F)(F)F)cc2)CC(F)(F)C1` [Example 128, (S)-{3,3-difluoro-1-[4-(trifluoromethoxy)phenyl]cyclobutyl}(pyridin-2-yl)-methanol], on human TRPV3 (setting [4]), the concentration for half-maximal inhibition (IC50) stood at 110 nM. The “HUMAN MICROSOMAL STABILITY (% REMAINING AFTER 30 MINUTES)” value in data set [1] was 59%. In data set [2], the “RAT MICROSOMAL STABILITY (% REMAINING AFTER 30 MINUTES)” value amounted to 67%. Moreover, the inhibition in vivo at 100 mg/kg in data set [3] was 78%.
For the compound `O[C@H](c1ccccn1)[C@]1(c2ccc(Cl)c(Cl)c2)CCO1` [Example 136, (R)-[(2R)-2-(3,4-dichlorophenyl)oxetan-2-yl](pyridin-2-yl)methanol], the IC50 on human TRPV3 (setting [4]) was 390 nM. Further, the “HUMAN MICROSOMAL STABILITY (% REMAINING AFTER 30 MINUTES)” value in data set [1] was determined as 24%. The “RAT MICROSOMAL STABILITY (% REMAINING AFTER 30 MINUTES)” value in data set [2] stood at 9.5%. Further, the inhibition in vivo at 100 mg/kg in data set [3] turned out to be 52%.
Turning to `OC1CC(c2ccc(C(F)(F)F)cc2)(C(O)c2ccccn2)C1` [Example 201, trans-3-[(S)-hydroxy(pyridin-2-yl)methyl]-3-[4-(trifluoromethyl)phenyl]-cyclobutanol], the half-maximal inhibitory concentration (IC50) on human TRPV3 (setting [4]) is 6010 nM. In data set [1], the “HUMAN MICROSOMAL STABILITY (% REMAINING AFTER 30 MINUTES)” value was found to be 73%. The “RAT MICROSOMAL STABILITY (% REMAINING AFTER 30 MINUTES)” value in data set [2] is recorded as above 85%. For the same compound, in data set [3], the inhibition in vivo at 100 mg/kg was determined as 64%.
The matching figures for `CN[C@@H]1CCC[C@H]1[C@@H](O)C1(c2ccc(Cl)c(Cl)c2)CCC1` [Example 228, (R)-[1-(3,4-dichlorophenyl)cyclobutyl][(1R,2R)-2-(methylamino)-cyclopentyl]methanol]: 2520 nM, 70%, 25% and 52%.
In the same order, the values of `C[C@]1(O)C[C@@](c2ccc(OC(F)(F)F)cc2)([C@@H](O)c2ccccn2)C1` [Example 250, cis-3-[(R)-hydroxy(pyridin-2-yl)methyl]-1-methyl-3-[4-(trifluoromethoxy)-phenyl]cyclobutanol] are 9230 nM, 70%, 70% and 57%.
Take `C[C@]1(O)C[C@@](c2cccc(OC(F)(F)F)c2)([C@H](O)c2ccccn2)C1` [Example 262, cis-3-[(S)-hydroxy(pyridin-2-yl)methyl]-1-methyl-3-[3-(trifluoromethoxy)-phenyl]cyclobutanol]: at human TRPV3 (setting [4]), the IC50 was determined as 630 nM. Also, the “HUMAN MICROSOMAL STABILITY (% REMAINING AFTER 30 MINUTES)” value in data set [1] was 48%. Moreover, the “RAT MICROSOMAL STABILITY (% REMAINING AFTER 30 MINUTES)” value in data set [2] is reported as 57%. In addition, the inhibition in vivo at 100 mg/kg in data set [3] was 45%.
On to `OC1CC(c2cc(C(F)(F)F)ccn2)(C(O)c2ccccn2)C1` [Example 283, trans-3-[(S)-hydroxy(pyridin-2-yl)methyl]-3-[4-(trifluoromethyl)pyridin-2-yl]cyclobutanol], for which, on human TRPV3 (setting [4]), the IC50 is 690 nM. The “HUMAN MICROSOMAL STABILITY (% REMAINING AFTER 30 MINUTES)” value in data set [1] was above 85%. Further, in data set [2], the “RAT MICROSOMAL STABILITY (% REMAINING AFTER 30 MINUTES)” value is above 85%. In data set [3], the inhibition in vivo at 100 mg/kg amounted to 49%.
Take `OC1CC(c2ccnc(C(F)(F)F)c2)(C(O)c2ccccn2)C1` [Example 306, trans-3-[(S)-hydroxy(pyridin-2-yl)methyl]-3-[2-(trifluoromethyl)pyridin-4-yl]cyclobutanol]: at human TRPV3 (setting [4]), the IC50 turned out to be 140 nM. Further, the “HUMAN MICROSOMAL STABILITY (% REMAINING AFTER 30 MINUTES)” value in data set [1] is above 85%. The “RAT MICROSOMAL STABILITY (% REMAINING AFTER 30 MINUTES)” value in data set [2] is above 85%. In data set [3], the inhibition in vivo at 100 mg/kg is 0%.
